Laboratory results published in patent publication US20130041005A1, “PHARMACEUTICAL COMPOSITIONS COMPRISING NEUROPILIN INHIBITORS, AND THEIR USE FOR THE PREVENTION AND/OR TREATMENT OF ANGIOGENIC DISORDERS AND CANCERS” (TRAGEX PHARMA, priority 2011, published 2013).

Assays:
MDAMB-231 cells = assay: Adhesion test (crystal violet), MDA-MB-231; assay type: cell-based, Human; conditions: MDAMB-231, FIGS. 1A-C
Procedure: The crystal violet (hexamethyl pararosaniline chloride) is used as biologic colorant. It enters in the living cells, allowing the visualisation of the dark purple adherent living cells on the bottom of the plate.
After an incubation period of 72 h, the adherent cells were fixed with […] paraformaldehyde
3% for 15 min at room temperature. The medium and non-adherent cells were removed, and the cells were washed extensively with […] PBS (+Ca^2+ and +Mg^2+) (Lonza) and then stained with 50 μl of crystal violet 0.04% for 30 min at room temperature. The cells were washed gently 3 times with 100 μl PBS and were permeabilised with 100 μl triton 2% for 15 min. The microplate was stirred to obtain a homogenous solution and absorbance was quantified at 580 nm by Microplate Manager 5.2.
The percentage of inhibition is calculated as follow: % inhibition=100−[(DOsample/DOcontrol)*100].

HUVEC cells = assay: WST-1 proliferation assay, HUVEC; assay type: cell-based; conditions: FIG. 1 cell survival
Procedure: (§1) Cells were grown as subconfluent monolayer and cultured in 75 cm^2 flasks at 37° C., 5% CO2 in a humidified atmosphere, and medium was changed every two days. Only cells from passages 2-6 were used for the experiments.
(§2) All cells were detached with 3 ml of trypsin/EDTA (chelator of calcium and magnesium ions) (Lonza), incubated for 5 min at 37° C., and examined using a microscope to ensure that the cells were detached and floating. […] The supernatant was removed and the cell pellet resuspended in […] of culture medium. 50 μl of this solution were transferred in 20 μl of isotonic solution and the cells were counted by count cellular (Beckman Coulter).
(§3) The cell proliferation WST-1 assay is a colorimetric assay for the quantification of cell proliferation and viability, based on the enzymatic cleavage of the tetrazolium salt WST-1 added to the culture medium, to a water soluble colored formazan dye, detected by absorbance at 450 nm, by mitochondrial succinate-tetrazolium reductase in viable cells. An augmentation in enzyme activity will then lead to an increase in the amount of formazan dye formed, which directly correlates to the number of metabolically active cells in the culture.
(§4) After an incubation period of 72 h, at day 4, were prepared the […] medium with reagent WST-1 […] ([…]). The medium was removed from the 96 microplate and 200 μl of solution WST-1/medium were added for each well. The cells were incubated at 37° C. in a humidified atmosphere of 5% CO2 for 1 h 30 and the absorbance at 450-655 nm was measured by Microplate Manager 5.2 (Bio-Rad).

MDA-MB-231 = assay: WST-1 proliferation assay, MDA-MB-231; assay type: cell-based, Human; conditions: MDAMB-231 cell survival, FIGS. 1A-C
Procedure: as §1, §2, §3, §4

NRP-1 = target: T1, NRP-1 (Homo sapiens, UniProt O14786); assay: ELISA inhibition of VEGF binding to NRP-1; conditions: compounds at 10 μM
T1 construct: purchased R&D Systems, UK 3870-N1-025
T1 sequence (O14786 22-644 isoform O14786-2 limits assumed): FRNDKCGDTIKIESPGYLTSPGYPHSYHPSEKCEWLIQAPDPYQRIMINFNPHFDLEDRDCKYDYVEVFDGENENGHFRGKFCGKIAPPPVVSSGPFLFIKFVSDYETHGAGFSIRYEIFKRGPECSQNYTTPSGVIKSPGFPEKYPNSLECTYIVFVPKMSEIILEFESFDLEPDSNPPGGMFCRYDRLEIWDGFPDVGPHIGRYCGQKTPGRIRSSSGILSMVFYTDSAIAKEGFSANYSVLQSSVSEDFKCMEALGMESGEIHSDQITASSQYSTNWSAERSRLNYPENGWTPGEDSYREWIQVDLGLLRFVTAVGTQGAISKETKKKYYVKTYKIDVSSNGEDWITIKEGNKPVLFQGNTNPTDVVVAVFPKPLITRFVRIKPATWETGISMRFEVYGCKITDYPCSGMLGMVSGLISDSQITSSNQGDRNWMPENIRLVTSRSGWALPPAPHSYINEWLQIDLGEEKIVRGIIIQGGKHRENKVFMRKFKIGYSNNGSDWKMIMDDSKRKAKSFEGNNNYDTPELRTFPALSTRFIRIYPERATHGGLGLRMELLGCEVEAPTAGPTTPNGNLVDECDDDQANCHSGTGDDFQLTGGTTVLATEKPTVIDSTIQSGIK
Procedure: Elisa test was performed covering a 96-well microplate (BD Biosciences, France, cat no 353046) surface with 100 μl of 1×PBS, pH 7.4 with Ca^2+ and Mg^2+, (Lonza, France, cat no 17-513F/12) solution containing 0.2 μg/ml of VEGF-R1 (R&D Systems, UK, cat no 321-FL-050/CF) or 2 μg/ml of NRP-1 (R&D Systems, UK, cat no 3870-N1-025) or NRP-2 (R&D Systems, UK, cat no […]). The plate was sealed and incubated overnight at 4° C. After 3 washes with 200 μl of 1×PBS 0.5% (v/v) Tween 20 (Sigma, France, cat no 34078) (Buffer A), the plate was blocked by adding 200 μl of 1×PBS with 0.5% (w/v) BSA (Eurobio, France, cat no GAUBSA01-65) and agitated at 37° C. for 2 h. After washing five times with Buffer A, 50 μl/well of the compounds of the invention at 10 μM were added for the specific signal and 50 μl/well for the non-specific and max binding signal and incubated at 37° C. for 1 hour, shacking. 50 μl of btVEGF (R&D Systems, UK, cat no NFVEO) at […] for NRP-1/4 μg/ml Heparin (Sigma, USA, cat no H3393-10KU), 300 μg/ml for NRP-2 and 100 μg/ml for VEGF-R1 solution was added to each well; the plate was sealed and incubated at 37° C. for 2 h, shacking. The last incubation was carried out, after five washes with Buffer A, adding 100 μl/well Streptavidin-Horseradish Peroxidase (Amersham, Switzerland, cat no RPN4401) diluted 1:8000 with buffer A. After 1 h shacking at 37° C. under obscurity, the plate was washed 5 times with buffer A and 100 μl of SuperSignal west picochemiluminescent substrate (Interchim, USA cat no 34078) were added. Luminescence was quantified with an EnVision™ 2101 Multilabel reader (Perkin Elmer, USA) and the data analyzed by Wallac Envision manager software. Signal is given as relative light units (RLU). Non-specific binding is defined as the signal measured in the absence of receptor coated on the microplate. The specific binding was calculated as the difference between total binding and non-specific binding. The percentage of inhibition was calculated as following: […]

Structure (SMILES): O=C(NC(=S)Nc1cccc(-c2nc3ccccc3[nH]2)c1)c1ccc2c(c1)OCO2 [Compound 3, N-[3-(1H-benzimidazol-2-yl)phenyl]-N′-(1,3-benzodioxol-5-ylcarbonyl)thiourea]
- inhibition of adhesion of cancer cells in culture (MDAMB-231 cells): inhibited the adhesion
- cytotoxicity for endothelial cell lines (HUVEC cells) in culture (HUVEC cells): cytotoxic
- cytotoxicity for cancer cells in vitro (MDA-MB-231): cytotoxic
- inhibition at 10 µM (NRP-1): 46 ± 3%
